Experimental data: ChEMBL document CHEMBL4020765, “Synthesis and α-glucosidase inhibition activity of dihydroxy pyrrolidines” (Bioorg Med Chem Lett, 2017); call rule not given here

Assays:
[1] = Inhibition of alpha glucosidase (unknown origin) using PNPG as substrate preincubated for 15 to 20 mins followed by substrate addition measured after 45 to 60 mins by spectrophotometric method
Homo sapiens [2] = organism: Homo sapiens; assay: Potency index, ratio of acarbose IC50 to compound IC50 for alpha glucosidase (unknown origin)
Homo sapiens [3] = organism: Homo sapiens; assay: Potency index, ratio of miglitol IC50 to compound IC50 for alpha glucosidase (unknown origin)
Homo sapiens [4] = organism: Homo sapiens; assay: Potency index, ratio of voglibose IC50 to compound IC50 for alpha glucosidase (unknown origin)
[5] = Inhibition of alpha glucosidase (unknown origin) using PNPG as substrate preincubated for 10 mins followed by substrate addition measured after 30 mins; design: species or system Homo sapiens

| IC50 ([1]; read-out: IC50) | SMILES | also measured |
| --- | --- | --- |
| 462 µM | OCCN1C[C@H](O)[C@@H](O)[C@H](O)[C@H]1CO [MIGLITOL] |  |
| 495 µM | O=C(Nc1ccc(CCC(=O)N2C[C@H](O)[C@@H](O)C2)cc1)c1ccsc1 |  |
| 886 µM | O=C(CCc1ccc(C(F)(F)F)cc1)N1C[C@@H](O)[C@@H](O)C1 |  |
| 556 µM | CC(C)(C)OC(=O)Nc1ccc(CCC(=O)N2C[C@@H](O)[C@@H](O)C2)cc1 |  |
| 463 µM | O=C(CCc1ccc(NS(=O)(=O)c2ccc(C(F)(F)F)cc2)cc1)N1C[C@H](O)[C@@H](O)C1 |  |
| 822 µM | O=C(/C=C/c1ccccc1)N1C[C@@H](O)[C@H](O)C1 |  |
| 474 µM | O=C(Nc1ccc(CCC(=O)N2C[C@@H](O)[C@H](O)C2)cc1)c1ccsc1 |  |
| 539 µM | Cn1c(C(=O)N2C[C@@H](O)[C@H](O)C2)cc2ccccc21 |  |
| 652 µM | O=C(/C=C/c1ccc(C(F)(F)F)cc1)N1C[C@H](O)[C@@H](O)C1 |  |
| 556 µM | Cn1c(C(=O)N2C[C@H](O)[C@@H](O)C2)cc2ccccc21 |  |
| 863 µM | O=C(CCc1ccc(C(F)(F)F)cc1)N1C[C@H](O)[C@@H](O)C1 |  |
| 429 µM | O=C(CCc1ccc(NS(=O)(=O)c2ccc(C(F)(F)F)cc2)cc1)N1C[C@@H](O)[C@H](O)C1 |  |
| 104 µM | O=C(CCc1ccc(O)cc1)Nc1ccc(CCC(=O)N2C[C@@H](O)[C@H](O)C2)cc1 | Ratio IC50 (Homo sapiens [2]): 3 to 4; Ratio IC50 (Homo sapiens [3]): 3 to 4; Ratio IC50 (Homo sapiens [4]): 3 to 4 |
| 360 µM | C[C@H]1O[C@H](O[C@H]2[C@H](O)[C@@H](O)[C@@H](O[C@H]3[C@H](O)[C@@H](O)C(O)O[C@@H]3CO)O[C@@H]2CO)[C@H](O)[C@@H](O)[C@@H]1N[C@H]1C=C(CO)[C@@H](O)[C@H](O)[C@H]1O (stereo not given in full) [ACARBOSE] |  |
| 200 µM | O=C(/C=C/c1ccc(F)cc1)Nc1ccc(CCC(=O)N2C[C@H](O)[C@@H](O)C2)cc1 |  |
| 607 µM | O=S(=O)(c1ccc(O)cc1)N1C[C@@H](O)[C@H](O)C1 |  |
| 302 µM | Nc1ccc(CCC(=O)N2C[C@@H](O)[C@@H](O)C2)cc1 |  |

Further lines, the compound ahead of its results:

| SMILES | IC50 ([1]; read-out: IC50) | also measured |
| --- | --- | --- |
| Cn1cc(C(=O)N2C[C@@H](O)[C@H](O)C2)c2ccccc21 | 531 µM |  |
| O=S(=O)(c1ccc(OC(F)(F)F)cc1)N1C[C@H](O)[C@@H](O)C1 | 228 µM |  |
| O=C(/C=C/c1ccccc1F)N1C[C@@H](O)[C@H](O)C1 | 862 µM |  |
| O=C(/C=C/c1ccc(O)cc1)N1C[C@@H](O)[C@H](O)C1 | 546 µM |  |
| O=C(/C=C/c1ccc(O)cc1)Nc1ccc(CCC(=O)N2C[C@H](O)[C@@H](O)C2)cc1 |  | IC50 [1]: Not Active |
| O=C(CCc1ccc(N(S(=O)(=O)c2ccc(C(F)(F)F)cc2)S(=O)(=O)c2ccc(C(F)(F)F)cc2)cc1)N1C[C@H](O)[C@@H](O)C1 | 114 µM |  |
| O=C(CCc1ccc(O)cc1)N1C[C@H](O)[C@@H](O)C1 | 602 µM |  |
| Nc1ccc(CCC(=O)N2C[C@@H](O)[C@H](O)C2)cc1 | 108 µM | Ratio IC50 (Homo sapiens [2]): 3 to 4; Ratio IC50 (Homo sapiens [3]): 3 to 4; Ratio IC50 (Homo sapiens [4]): 3 to 4 |
| O=C(CCc1ccc([N+](=O)[O-])cc1)N1C[C@H](O)[C@@H](O)C1 | 772 µM |  |
| O=C(CCc1ccsc1)N1C[C@@H](O)[C@H](O)C1 | 723 µM |  |
| O=C(CCc1ccc(C(F)(F)F)cc1)Nc1ccc(CCC(=O)N2C[C@@H](O)[C@H](O)C2)cc1 |  | IC50 [1]: Not Active |
| O=C(/C=C/c1ccc(O)cc1)Nc1ccc(CCC(=O)N2C[C@@H](O)[C@H](O)C2)cc1 |  | IC50 [1]: Not Active |
| O=C(/C=C/c1ccccc1C(F)(F)F)N1C[C@@H](O)[C@H](O)C1 |  | IC50 [1]: Active |
| O=C(/C=C/c1ccsc1)N1C[C@H](O)[C@@H](O)C1 |  | IC50 [1]: Not Active |
| O=C(CCc1ccc(O)cc1)Nc1ccc(CCC(=O)N2C[C@H](O)[C@@H](O)C2)cc1 | 98.5 µM | Ratio IC50 (Homo sapiens [2]): 3 to 4; Ratio IC50 (Homo sapiens [3]): 3 to 4; Ratio IC50 (Homo sapiens [4]): 3 to 4 |
| O=C(CCc1ccccc1)N1C[C@H](O)[C@@H](O)C1 |  | IC50 [1]: Not Active |
| Nc1ccc(CCC(=O)Nc2ccc(CCC(=O)N3C[C@@H](O)[C@H](O)C3)cc2)cc1 | 259 µM |  |
| CO[C@H]1C=CC(=O)N1C(=O)CCc1ccccc1 |  | IC50 [5]: 430 µM |
| O=C(CCc1ccsc1)N1C[C@H](O)[C@@H](O)C1 | 796 µM |  |
| O=C(CCc1ccc(NS(=O)(=O)c2ccc(F)cc2)cc1)N1C[C@H](O)[C@@H](O)C1 |  | IC50 [1]: Active |
| O=C(CCc1ccccc1)N1C[C@@H](O)[C@H](O)C1 |  | IC50 [1]: Not Active |
| O=C(/C=C/c1ccc(F)cc1)Nc1ccc(CCC(=O)N2C[C@@H](O)[C@H](O)C2)cc1 | 111 µM |  |
| Nc1ccc(CCC(=O)Nc2ccc(CCC(=O)N3C[C@H](O)[C@@H](O)C3)cc2)cc1 | 262 µM |  |
| O=C(CCc1ccc(C(F)(F)F)cc1)N1C[C@@H](O)[C@H](O)C1 | 856 µM |  |
| O=C(/C=C/c1ccccc1F)N1C[C@H](O)[C@@H](O)C1 | 837 µM |  |
| OCC(CO)N[C@H]1C[C@](O)(CO)[C@@H](O)[C@H](O)[C@H]1O [VOGLIBOSE] | 325 µM |  |
| O=C(CCc1ccc(F)cc1)Nc1ccc(CCC(=O)N2C[C@@H](O)[C@H](O)C2)cc1 |  | IC50 [1]: Not Active |

| SMILES | IC50 ([1]; read-out: IC50) | also measured |
| --- | --- | --- |
| O=C(/C=C/c1ccc(C(F)(F)F)cc1)N1C[C@@H](O)[C@@H](O)C1 | 638 µM |  |
| O=C(CCc1ccc([N+](=O)[O-])cc1)N1C[C@@H](O)[C@H](O)C1 |  | IC50 [1]: Not Active |
| O=C(CCc1ccccc1F)N1C[C@@H](O)[C@H](O)C1 |  | IC50 [1]: Not Active |
| O=C(CCc1ccccc1F)N1C[C@H](O)[C@@H](O)C1 |  | IC50 [1]: Not Active |
| CC(C)(C)OC(=O)Nc1ccc(CCC(=O)N2C[C@H](O)[C@@H](O)C2)cc1 |  | IC50 [1]: Not Active |
| O=C(CCc1ccc(O)cc1)N1C[C@@H](O)[C@H](O)C1 | 657 µM |  |
| O=C(CCc1ccccc1C(F)(F)F)N1C[C@@H](O)[C@H](O)C1 | 272 µM |  |
| O=C1C=C[C@H](O)N1C(=O)CCc1ccccc1 |  | IC50 [5]: 7820 µM |
| Nc1ccc(CCC(=O)N2C[C@H](O)[C@@H](O)C2)cc1 | 185 µM |  |
| O=C(CCc1ccccc1C(F)(F)F)N1C[C@H](O)[C@@H](O)C1 | 124 µM |  |
| O=C(/C=C/c1ccc(C(F)(F)F)cc1)Nc1ccc(CCC(=O)N2C[C@@H](O)[C@H](O)C2)cc1 |  | IC50 [1]: Not Active |
| O=C(CCc1ccncc1)N1C[C@@H](O)[C@H](O)C1 | 966 µM |  |
| O=C(/C=C/c1ccsc1)N1C[C@@H](O)[C@H](O)C1 |  | IC50 [1]: Not Active |
| CC(C)(C)OC(=O)Nc1ccc(CCC(=O)N2C[C@@H](O)[C@H](O)C2)cc1 |  | IC50 [1]: Not Active |
| O=C(CCc1ccc(C(F)(F)F)cc1)Nc1ccc(CCC(=O)N2C[C@H](O)[C@@H](O)C2)cc1 |  | IC50 [1]: Not Active |
| O=S(=O)(c1ccc(OC(F)(F)F)cc1)N1C[C@@H](O)[C@H](O)C1 |  | IC50 [1]: Active |
| O=C(CCc1ccc(NS(=O)(=O)c2ccc(F)cc2)cc1)N1C[C@@H](O)[C@H](O)C1 |  | IC50 [1]: Active |
| O=C(/C=C/c1ccccc1)N1C[C@H](O)[C@@H](O)C1 | 747 µM |  |
| O=C(CCc1ccncc1)N1C[C@H](O)[C@@H](O)C1 | 943 µM |  |
| O=C(/C=C/c1ccc(C(F)(F)F)cc1)N1C[C@@H](O)[C@H](O)C1 | 605 µM |  |
| O=S(=O)(c1ccc(O)cc1)N1C[C@H](O)[C@@H](O)C1 | 453 µM |  |
| Cn1cc(C(=O)N2C[C@H](O)[C@@H](O)C2)c2ccccc21 | 594 µM |  |
| O=C(CCc1ccc(F)cc1)Nc1ccc(CCC(=O)N2C[C@H](O)[C@@H](O)C2)cc1 |  | IC50 [1]: Not Active |
| O=C(/C=C/c1ccc(O)cc1)N1C[C@H](O)[C@@H](O)C1 | 506 µM |  |
| O=S(=O)(c1ccc(C(F)(F)F)cc1)N1C[C@H](O)[C@@H](O)C1 | 497 µM |  |
| O=C(/C=C/c1ccccc1C(F)(F)F)N1C[C@H](O)[C@@H](O)C1 | 656 µM |  |
| O=C(/C=C/c1ccc(C(F)(F)F)cc1)Nc1ccc(CCC(=O)N2C[C@H](O)[C@@H](O)C2)cc1 |  | IC50 [1]: Not Active |
